Measurements published in ChEMBL document CHEMBL5634070, “Assessment of the structure-activity relationship and antileukemic activity of diacylpyramide compounds as human ClpP agonists” (Eur J Med Chem, 2023).

Columns and labels:
[1] = molecular target: T1, ATP-dependent Clp protease proteolytic subunit, mitochondrial (Homo sapiens, UniProt Q16740); test: Agonist activity at human CLpP by measuring alpha-casein hydrolysis using alpha-casein as substrate preincubated for 10 mins followed by substrate addition and measured after 120 mins by Coomassie brilliant blue staining based SDS-PAGE assay
T1 sequence (Q16740 whole entry): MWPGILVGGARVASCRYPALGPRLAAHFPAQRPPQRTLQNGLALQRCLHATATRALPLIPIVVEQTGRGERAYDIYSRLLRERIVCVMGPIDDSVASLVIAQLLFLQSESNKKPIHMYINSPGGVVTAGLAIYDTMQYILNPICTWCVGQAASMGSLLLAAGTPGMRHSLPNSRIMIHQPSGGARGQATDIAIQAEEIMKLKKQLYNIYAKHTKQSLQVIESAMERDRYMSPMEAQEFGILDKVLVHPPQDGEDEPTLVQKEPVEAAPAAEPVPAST

[2] = system: MOLM-13; test: Antiproliferative activity against human MOLM-13 cells assessed as inhibition of cell growth at 20 uM by CCK-8 assay relative to control; assay type: functional
[3] = molecular target: T1, ATP-dependent Clp protease proteolytic subunit, mitochondrial; test: Binding affinity to human CLpP assessed as change in melting temperature by DSF assay; settings: filed as agonist
[4] = system: NB-4; test: Inhibition of colony formation in human NB4 cells incubated for 14 days; assay type: functional, cell-based; settings: time 14.0 day
[5] = molecular target: T1, ATP-dependent Clp protease proteolytic subunit, mitochondrial; test: Agonist activity at human CLpP by measuring alpha-casein hydrolysis using alpha-casein as substrate by FITC staining based assay

Row | SMILES | EC50 [1] [µM] | ΔTm [3] [°C] | EC50 [5] [nM] | inhibition at 20 µM [2] [%] | inhibition [4]
1 | CC[C@H](C)[C@H]1C(=O)N(Cc2cccc3ccccc23)C[C@@H]2N(C(=O)NCc3ccc(F)c(F)c3)CCC(=O)N12 | 3.7 |  |  | 99.6 | 
2 | CC[C@H](C)[C@H]1C(=O)N(Cc2cccc3ccccc23)C[C@@H]2N(C(=O)NCc3ccc4ccccc4c3)CCC(=O)N12 | 10.6 |  |  | 99.3 | 
3 | CC[C@H](C)[C@H]1C(=O)N(Cc2cccc3ccccc23)C[C@@H]2N(C(=O)NCc3ccc(C)cc3)CCC(=O)N12 | 3.3 |  |  | 99.4 | 
4 | CC[C@H](C)[C@H]1C(=O)N(Cc2cccc3ccccc23)C[C@@H]2N(C(=O)NCc3ccc(OC)cc3)CCC(=O)N12 | 3.4 |  |  | 99.4 | 
5 | CC[C@H](C)[C@H]1C(=O)N(Cc2cccc3ccccc23)C[C@@H]2N(C(=O)CCc3ccccc3)CCC(=O)N12 | 14.1 |  |  | 92 | 
6 | CC[C@H](C)[C@H]1C(=O)N(Cc2cccc3ccccc23)C[C@@H]2N(C(=O)NCc3ccc(C(C)C)cc3)CCC(=O)N12 | > 25 |  |  | 97.7 | 
7 | O=C1[C@H](Cc2cnc[nH]2)N2C(=O)CCN(C(=O)NCc3ccccc3)[C@H]2CN1Cc1cccc2ccccc12 | 22.8 |  |  | 13.4 | 
8 | CC[C@H](C)[C@H]1C(=O)N(Cc2cccc3ccccc23)C[C@@H]2N(C(=O)NCc3cc(Br)cc(Br)c3)CCC(=O)N12 | > 25 |  |  | 98.4 | 
9 | CC[C@H](C)[C@H]1C(=O)N(Cc2cccc3ccccc23)C[C@@H]2N(C(=O)NCc3ccc(F)c(Br)c3)CCC(=O)N12 | 3.6 |  |  | 97.6 | 
10 | CC[C@H](C)[C@H]1C(=O)N(Cc2cccc3ccccc23)C[C@@H]2N(C(=O)NCc3c(F)c(F)c(F)c(F)c3F)CCC(=O)N12 | 15.9 |  |  | 99.9 | 
11 | CC[C@H](C)[C@H]1C(=O)N(Cc2cccc3ccccc23)C[C@@H]2N(C(=O)NCc3ccc4c(c3)OCO4)CCC(=O)N12 | 5.8 |  |  | 78.6 | 
12 | CC[C@H](C)[C@H]1C(=O)N(Cc2ccc(F)c3ccccc23)C[C@@H]2N(C(=O)NCc3ccc(Br)cc3)CCC(=O)N12 | 3.8 |  |  | 97.7 | 
13 | CC(C)C[C@H]1C(=O)N(Cc2cccc3ccccc23)C[C@@H]2N(C(=O)NCc3ccccc3)CCC(=O)N21 | 7.2 |  |  | 82.5 | 
14 | O=C1[C@H](Cc2ccc(O)cc2)N2C(=O)CCN(C(=O)NCc3ccccc3)[C@H]2CN1Cc1cccc2ccccc12 | 7.1 |  |  | 86.9 | 
15 | CC[C@H](C)[C@H]1C(=O)N(Cc2cccc3ccccc23)C[C@@H]2N(C(=O)NCc3cc(F)c(F)c(F)c3)CCC(=O)N12 | 10.9 |  |  | 99.5 | 
16 | CC[C@H](C)[C@H]1C(=O)N(Cc2cccc3ccccc23)C[C@@H]2N(C(=O)NCc3ccc(F)cc3Cl)CCC(=O)N12 | 8.7 |  |  | 99.8 | 
17 | NC(=O)C[C@H]1C(=O)N(Cc2cccc3ccccc23)C[C@@H]2N(C(=O)NCc3ccccc3)CCC(=O)N21 | > 25 |  |  | 5.5 | 
18 | CC[C@H](C)[C@H]1C(=O)N(Cc2cccc3c2OCO3)C[C@@H]2N(C(=O)NCc3ccc(Br)cc3)CCC(=O)N12 | 14.9 |  |  | 44.4 | 
19 | CC[C@H](C)[C@H]1C(=O)N(Cc2cccc3ccccc23)C[C@@H]2N(C(=O)NCc3cc(F)c(Br)c(F)c3)CCC(=O)N12 | 3.6 |  |  | 99.1 | 
20 | CC[C@H](C)[C@H]1C(=O)N(Cc2cccc3ccccc23)C[C@@H]2N(C(=O)NCc3ccc(I)cc3)CCC(=O)N12 | 5.2 |  |  | 97.5 | 
21 | CC[C@H](C)[C@H]1C(=O)N(Cc2cccc3ccccc23)C[C@@H]2N(C(=O)NC(C)(C)c3ccccc3)CCC(=O)N12 | 4.3 |  |  | 46.3 | 
22 | CC[C@H](C)[C@H]1C(=O)N(Cc2cccc3ccccc23)C[C@@H]2N(C(=O)NCc3ccc(C(F)(F)F)cc3)CCC(=O)N12 | 7.7 |  |  | 95.3 | 

Further lines, with some results ahead:

Row | EC50 [1] [µM] | ΔTm [3] [°C] | EC50 [5] [nM] | SMILES | inhibition at 20 µM [2] [%] | inhibition [4]
23 | 10.4 |  |  | CC[C@H](C)[C@H]1C(=O)N(Cc2cccc3ccccc23)C[C@@H]2N(C(=O)CCc3ccc(F)cc3)CCC(=O)N12 | 58.2 | 
24 | > 25 |  |  | CC[C@H](C)[C@H]1C(=O)N(Cc2ccc3ccccc3c2)C[C@@H]2N(C(=O)NCc3ccc(Br)cc3)CCC(=O)N12 | 13.2 | 
25 | 14.4 |  |  | O=C1[C@H](Cc2ccccc2)N2C(=O)CCN(C(=O)NCc3ccccc3)[C@H]2CN1Cc1cccc2ccccc12 | 34 | 
26 | > 25 |  |  | CC[C@H](C)[C@H]1C(=O)N(Cc2cccc3ccccc23)C[C@@H]2N(C(=O)NCc3ccc(OC)c(OC)c3)CCC(=O)N12 | 35.2 | 
27 | 4.6 |  |  | CCCCNC(=O)N1CCC(=O)N2[C@@H]([C@@H](C)CC)C(=O)N(Cc3cccc4ccccc34)C[C@H]12 | 23.6 | 
28 | 5.4 |  |  | CC[C@H](C)[C@H]1C(=O)N(Cc2cccc3ccccc23)C[C@@H]2N(C(=O)NCc3ccc(F)c(OC)c3)CCC(=O)N12 | 98.1 | 
29 | 5.6 |  |  | CC[C@H](C)[C@H]1C(=O)N(Cc2cccc3ccccc23)C[C@@H]2N(C(=O)NCc3ccc(Br)cc3F)CCC(=O)N12 | 98 | 
30 | 15.9 |  |  | CSCC[C@H]1C(=O)N(Cc2cccc3ccccc23)C[C@@H]2N(C(=O)NCc3ccccc3)CCC(=O)N21 | 24.4 | 
31 | 3.4 |  |  | CC[C@H](C)[C@H]1C(=O)N(Cc2cccc3ccccc23)C[C@@H]2N(C(=O)NCc3ccc(F)c(Cl)c3)CCC(=O)N12 | 97.9 | 
32 | > 25 |  |  | CC[C@H](C)[C@H]1C(=O)N(Cc2cccc3ccccc23)C[C@@H]2N(C(=O)NCC3CCOCC3)CCC(=O)N12 | 6.3 | 
33 | > 25 |  |  | CC[C@H](C)[C@H]1C(=O)N(Cc2cccc3ccccc23)C[C@@H]2N(C(=O)NCc3c(F)cc(Br)cc3F)CCC(=O)N12 | 99.1 | 
34 | 2.7 |  |  | CC[C@H](C)[C@H]1C(=O)N(Cc2cccc3ccccc23)C[C@@H]2N(C(=O)NCc3ccc(Cl)cc3)CCC(=O)N12 | 98.3 | 
35 | 2.8 | 16.4 | 1190 | CC[C@H](C)[C@H]1C(=O)N(Cc2cccc3ccccc23)C[C@@H]2N(C(=O)NCc3ccc(Br)cc3)CCC(=O)N12 | 99.7 | Dose-Dependent Effect
36 | 7.8 |  |  | CC[C@H](C)[C@H]1C(=O)N(Cc2cccc3ccccc23)C[C@@H]2N(C(=O)NCc3ccccc3)CCC(=O)N12 | 97.9 | 
37 | 11.2 |  |  | CC[C@H](C)[C@H]1C(=O)N(Cc2cccc3ccccc23)C[C@@H]2N(C(=O)NCC3CCCCC3)CCC(=O)N12 | 99.5 | 
